Laboratory results published in ChEMBL document CHEMBL5465560, “Selectivity Literature for EUbOPEN Chemogenomic Library” (2024).
One block for each compound: values may come before it.

Assays:
[1] = target: T1, Mitogen-activated protein kinase kinase kinase 15 (Homo sapiens) (UniProt Q6ZN16); test: Selectivity interaction (Ambit KINOMEscan and KiNATiv profiling in Jurkat cells) EUB0000090b MAP3K15; assay type: cell-based; conditions: at 1 µM
T1 sequence (whole entry): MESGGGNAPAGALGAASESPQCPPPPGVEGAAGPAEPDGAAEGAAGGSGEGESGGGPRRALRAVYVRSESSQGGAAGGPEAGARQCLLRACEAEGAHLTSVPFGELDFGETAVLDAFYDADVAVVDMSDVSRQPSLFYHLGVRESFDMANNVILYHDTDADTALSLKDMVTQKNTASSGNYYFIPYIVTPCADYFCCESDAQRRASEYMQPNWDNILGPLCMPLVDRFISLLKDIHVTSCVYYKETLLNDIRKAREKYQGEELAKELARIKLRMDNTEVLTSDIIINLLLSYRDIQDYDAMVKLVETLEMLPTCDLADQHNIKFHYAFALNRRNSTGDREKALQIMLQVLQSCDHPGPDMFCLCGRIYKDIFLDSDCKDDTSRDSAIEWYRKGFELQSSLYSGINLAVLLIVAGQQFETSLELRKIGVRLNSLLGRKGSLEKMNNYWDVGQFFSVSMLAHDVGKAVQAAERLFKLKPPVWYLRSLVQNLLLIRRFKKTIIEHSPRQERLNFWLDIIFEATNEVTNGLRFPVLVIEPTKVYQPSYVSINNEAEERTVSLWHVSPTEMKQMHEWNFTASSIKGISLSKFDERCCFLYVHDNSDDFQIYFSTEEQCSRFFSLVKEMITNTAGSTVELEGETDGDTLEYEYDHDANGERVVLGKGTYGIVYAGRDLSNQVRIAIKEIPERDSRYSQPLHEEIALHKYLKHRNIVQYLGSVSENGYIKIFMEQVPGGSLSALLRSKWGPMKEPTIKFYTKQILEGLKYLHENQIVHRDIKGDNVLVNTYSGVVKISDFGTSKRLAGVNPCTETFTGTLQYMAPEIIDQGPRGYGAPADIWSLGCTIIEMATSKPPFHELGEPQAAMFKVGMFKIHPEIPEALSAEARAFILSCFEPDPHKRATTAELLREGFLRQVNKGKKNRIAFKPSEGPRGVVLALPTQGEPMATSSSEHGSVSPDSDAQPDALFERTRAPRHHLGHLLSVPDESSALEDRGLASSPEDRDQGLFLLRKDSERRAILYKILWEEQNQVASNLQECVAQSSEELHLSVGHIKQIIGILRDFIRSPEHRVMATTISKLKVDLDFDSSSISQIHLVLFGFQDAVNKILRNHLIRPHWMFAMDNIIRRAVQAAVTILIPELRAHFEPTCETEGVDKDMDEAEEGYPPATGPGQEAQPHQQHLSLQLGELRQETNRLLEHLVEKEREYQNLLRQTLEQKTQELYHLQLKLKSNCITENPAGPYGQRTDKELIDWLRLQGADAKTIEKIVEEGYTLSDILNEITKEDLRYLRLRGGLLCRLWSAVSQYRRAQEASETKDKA

[2] = target: T2, Aurora kinase A (Homo sapiens) (UniProt O14965); conditions: at 10 µM
T2 sequence (whole entry): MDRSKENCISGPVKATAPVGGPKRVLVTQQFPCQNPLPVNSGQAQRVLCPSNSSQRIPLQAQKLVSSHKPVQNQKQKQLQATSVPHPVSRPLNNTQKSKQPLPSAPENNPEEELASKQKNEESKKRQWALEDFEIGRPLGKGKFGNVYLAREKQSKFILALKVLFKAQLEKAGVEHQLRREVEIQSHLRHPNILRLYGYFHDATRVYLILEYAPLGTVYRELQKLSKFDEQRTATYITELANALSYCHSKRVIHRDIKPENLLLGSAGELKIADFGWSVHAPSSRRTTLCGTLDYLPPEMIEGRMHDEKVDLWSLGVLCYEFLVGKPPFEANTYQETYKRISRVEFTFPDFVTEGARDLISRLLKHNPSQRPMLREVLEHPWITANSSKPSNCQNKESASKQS

[3] = target: T3, Serine/threonine-protein kinase D2 (Homo sapiens) (UniProt Q9BZL6); test: Selectivity interaction (KinomeScan (DiscoverX)) EUB0000595a PRKD2; conditions: at 10 µM
T3 sequence (whole entry): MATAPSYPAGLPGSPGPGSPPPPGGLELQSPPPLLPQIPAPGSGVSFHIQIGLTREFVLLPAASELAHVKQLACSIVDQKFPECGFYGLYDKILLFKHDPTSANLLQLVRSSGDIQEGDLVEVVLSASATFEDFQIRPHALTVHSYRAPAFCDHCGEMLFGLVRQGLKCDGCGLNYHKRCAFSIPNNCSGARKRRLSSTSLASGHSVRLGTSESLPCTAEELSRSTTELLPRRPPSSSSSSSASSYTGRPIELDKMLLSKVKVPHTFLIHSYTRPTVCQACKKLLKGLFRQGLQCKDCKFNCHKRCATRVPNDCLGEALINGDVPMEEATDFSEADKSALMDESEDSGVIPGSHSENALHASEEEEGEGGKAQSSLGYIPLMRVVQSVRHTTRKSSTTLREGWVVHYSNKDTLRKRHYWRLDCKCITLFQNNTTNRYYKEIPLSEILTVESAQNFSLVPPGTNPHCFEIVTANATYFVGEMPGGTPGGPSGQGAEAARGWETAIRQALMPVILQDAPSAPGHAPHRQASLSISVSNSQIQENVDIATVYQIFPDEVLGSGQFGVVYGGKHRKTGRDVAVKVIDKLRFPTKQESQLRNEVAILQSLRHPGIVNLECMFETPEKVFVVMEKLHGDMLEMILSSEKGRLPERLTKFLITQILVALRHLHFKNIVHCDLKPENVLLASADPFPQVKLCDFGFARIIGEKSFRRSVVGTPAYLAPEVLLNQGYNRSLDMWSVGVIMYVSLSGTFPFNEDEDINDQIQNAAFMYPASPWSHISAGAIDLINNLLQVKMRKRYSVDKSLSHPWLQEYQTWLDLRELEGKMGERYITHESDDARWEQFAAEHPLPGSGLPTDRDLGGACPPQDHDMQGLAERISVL

[4] = target: Misshapen-like kinase 1 (Homo sapiens, UniProt Q8N4C8); test: Selectivity interaction (SelectScreen Kinase Profiling (Thermo Fisher Scientific)) EUB0001558a MINK1; conditions: at 1 µM
Chain of Misshapen-like kinase 1 (Q8N4C8 whole entry, looked up): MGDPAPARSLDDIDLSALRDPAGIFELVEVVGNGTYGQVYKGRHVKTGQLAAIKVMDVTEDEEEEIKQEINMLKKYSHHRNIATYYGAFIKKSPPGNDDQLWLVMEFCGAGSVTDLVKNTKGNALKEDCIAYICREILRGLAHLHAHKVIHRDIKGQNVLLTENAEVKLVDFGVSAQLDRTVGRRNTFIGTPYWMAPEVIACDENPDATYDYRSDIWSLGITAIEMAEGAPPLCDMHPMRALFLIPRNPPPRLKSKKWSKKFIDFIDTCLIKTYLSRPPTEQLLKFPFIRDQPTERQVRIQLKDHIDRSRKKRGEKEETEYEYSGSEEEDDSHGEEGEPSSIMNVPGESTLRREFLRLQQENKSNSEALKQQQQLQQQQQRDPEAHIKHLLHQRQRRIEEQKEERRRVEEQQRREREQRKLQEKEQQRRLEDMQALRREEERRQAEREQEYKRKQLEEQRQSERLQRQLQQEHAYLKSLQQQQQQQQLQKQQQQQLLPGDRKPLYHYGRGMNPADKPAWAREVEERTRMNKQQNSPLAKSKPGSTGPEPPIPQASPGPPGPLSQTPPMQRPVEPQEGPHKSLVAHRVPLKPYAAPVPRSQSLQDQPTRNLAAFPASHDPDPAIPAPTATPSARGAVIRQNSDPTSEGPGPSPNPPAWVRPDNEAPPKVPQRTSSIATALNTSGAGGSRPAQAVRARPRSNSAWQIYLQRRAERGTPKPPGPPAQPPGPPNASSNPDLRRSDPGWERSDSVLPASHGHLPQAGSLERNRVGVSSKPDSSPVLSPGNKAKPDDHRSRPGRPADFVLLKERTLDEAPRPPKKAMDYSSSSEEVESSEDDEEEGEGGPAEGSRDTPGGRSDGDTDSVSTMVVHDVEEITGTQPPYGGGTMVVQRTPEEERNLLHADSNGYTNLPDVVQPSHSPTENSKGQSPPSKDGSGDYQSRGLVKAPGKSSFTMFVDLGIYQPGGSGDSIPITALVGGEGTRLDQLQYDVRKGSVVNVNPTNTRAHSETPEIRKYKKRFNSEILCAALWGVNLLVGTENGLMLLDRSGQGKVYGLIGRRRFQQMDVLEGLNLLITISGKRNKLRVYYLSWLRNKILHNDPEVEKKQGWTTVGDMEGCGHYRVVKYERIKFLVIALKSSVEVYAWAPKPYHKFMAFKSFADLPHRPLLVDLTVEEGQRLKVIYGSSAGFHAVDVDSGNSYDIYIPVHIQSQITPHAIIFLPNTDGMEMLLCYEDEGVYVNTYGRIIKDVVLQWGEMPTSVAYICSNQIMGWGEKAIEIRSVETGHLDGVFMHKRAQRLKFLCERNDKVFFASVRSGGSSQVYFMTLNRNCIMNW

SMILES: CN(C)C/C=C/C(=O)Nc1ccc(C(=O)N2CCCC(Nc3ncc(Cl)c(-c4c[nH]c5ccccc45)n3)C2)cc1 (centres undefined)
% of control [1]: 73%

% of control [2]: 100%
SMILES: CCN(CC)CCCCNc1ncc2cc(-c3cc(OC)cc(OC)c3)c(NC(=O)NC(C)(C)C)nc2n1

SMILES: COCC(=O)NC/C=C/c1ccc2ncnc(Nc3ccc(Oc4ccc(C)nc4)c(C)c3)c2c1 [CP-724714]
% of control [3]: 97%

SMILES: CC(C)(O)[C@H](F)CN1Cc2cc(NC(=O)c3cnn4cccnc34)c(N3CCOCC3)cc2C1=O
% of inhibition [4]: 80.5%
